US20190290656A1, “PT(IV) PRODRUGS” (YISSUM RESEARCH DEVELOPMENT COMPANY OF THE HEBREW …, priority 2015, published 2019)
Where “and” joins values, the source holds several entries; their conditions need not be identical. Equal values may be shown once.

Assays:
2008 cells = assay: Glycolysis (Mito-ID O2 sensor), 2008; type: cell-based, human; conditions: IC50 concentrations, 24 h
Description: (§1) Glycolysis. The cellular glycolytic activity was assessed using the Mito-ID® O2 Extracellular Sensor Kit according to the manufacturer's instructions (Enzo Life Sciences, Farmingdale, N.Y.). Briefly, PSN-1 cells (15·10^3 per well) were seeded in 96-well plates. After 24 h, cells were treated with Mito-ID® O2 Sensor Probe Solution containing the tested compounds at the appropriate concentration. Fluorescence was estimated using a plate reader (Fluoroskan Ascent FL, Labsystem, Finland) at 350 nm (excitation) and 610 nm (emission).
(§2) Based on the above findings, we investigated the effects determined by derivatives 3a and 3b on 2008 and PSN-1 cancer cell aerobic glycolysis and mitochondria function.
(§3) However, these effects were magnified in PSN-1 cells, having reduction of cellular glycolytic activity of about 36 and 20% for 3a and 3b, respectively. […] This latter result could be explained tacking into consideration that the reference compound [Pt(DACH)(56Phen)] itself, that is also released upon reduction of 3a and 3b, is effective in hampering cellular glycolysis in both tested cancer cell lines. The difference between 3a and 3b might be attributed to the added effect of DCA.

[1] = Stability in cell culture medium DMEM (NMR); type: physicochemical; conditions: 37° C.
Description: A solution 2.0 mM of 3a (Scheme 4) in DMEM was kept at 37° C. for 3 days. NMR measurements were performed every day.
A phosphate buffer solution is an oversimplified model for medium of biological relevance in order to test the stability of a drug candidate. […] Thus, as following step, we evaluated the stability of 3a in cell culture medium DMEM, where the biomolecules present can affect the overall degradation process. A 2.0 mM solution of 3a in DMEM monitored by ^1H NMR spectroscopy for 3 days at 37° C. (FIG. 8).

[2] = tested on: six human cancer cell lines; assay: MTT cytotoxicity, over six human cancer cell lines; type: cell-based; conditions: on average over tested cell lines
Description: MTT assay. […] Triplicate cultures were established for each treatment.
The two dimers, 3a and 3b, as well as compounds 1a and 2a were screened against six human cancer cell lines representative of lung (H157), colon (HCT-15), cervical (A431), ovarian (2008) and pancreatic (PSN1) cancers, along with melanoma (A375). Cytotoxicity was evaluated by means of the MTT test after 72 h of treatment and the in vitro antitumor potential of newly synthesized derivatives was compared to that of the reference metallo-drugs CDDP and OXP.

PSN-1 cells = assay: Glycolysis (Mito-ID O2 sensor), PSN-1; type: cell-based, human; conditions: IC50 concentrations, 24 h
Description: as §1, §2, §3

MCF-7 cells = assay: MTT cytotoxicity assay, MCF-7; type: cell-based, human; conditions: MCF-7, 72 h exposure, MTT; read-out: IC50 (median growth inhibitory concentration)
Description: (§4) Cisplatin (CDDP) and oxaliplatin (OXP) were dissolved just before the experiment in a 0.9% NaCl solution.
(§5) Human prostate adenocarcinoma (PC3) cells were obtained from European Collection of Cell Cultures (ECACC, Salisbury, UK). Human ovarian cancer cell lines A2780 and its cisplatin resistant variant, A2780cisR, were kindly provided by Prof.
(§6) Triplicate cultures were established for each treatment.

PC3 cells = assay: MTT cytotoxicity assay, PC3; type: cell-based, human; conditions: PC3, 72 h exposure, read-out: IC50 (median growth inhibitory concentration)
Description: as §4, §5, §6

[3] = octanol/water partition, shake-flask method; type: physicochemical
Description: To quantify the hydrophobicity of the platinum complexes, partition coefficients (log P) values for octanol/water partition were measured using the shake-flask method.

A498 cells = assay: MTT cytotoxicity assay, A498; type: cell-based, human; conditions: A498, 72 h exposure, read-out: IC50 (median growth inhibitory concentration)
Description: (§7) Platinum(IV) complexes were dissolved in DMSO to stock solutions of 1 mg/mL just before the experiment, and a calculated amount of drug solution was added to the cell growth medium to a final solvent concentration of 0.5%, which had no discernible effect on cell killing. Cisplatin (CDDP) and oxaliplatin (OXP) were dissolved just before the experiment in a 0.9% NaCl solution.
as §5
(§8) Cancer Res. 1988, 48, 589-601]. […] Triplicate cultures were established for each treatment.

nine cancer cell lines = assay: MTT cytotoxicity, over the nine cancer cell lines; conditions: read-out: average IC50 values for the nine cancer cell lines; mean over nine cell lines, 72 h MTT
[4] = tested on: Lewis lung carcinoma (LLC); assay: In vivo efficacy study, Lewis lung carcinoma mouse model; design: species or system C57BL mice; conditions: day 7-14
Description: A preliminary in vivo efficacy study was carried out on a mouse model (see Table 3 below):
Lewis lung carcinoma (LLC) was implanted i.m. (2·10^6 cells inoculum) into the right hind leg of 8-week old inbred C57BL mice (24±3 g body weight). Chemotherapy was delayed until the tumor became visible (day 7).

A549 cells = assay: MTT cytotoxicity assay, A549; type: cell-based, human; conditions: A549, 72 h exposure, MTT; read-out: IC50 (median growth inhibitory concentration)
Description: as §4, §5, §6

A2780cisR cells = assay: MTT cytotoxicity assay, A2780cisR (cisplatin resistant); type: cell-based, human; conditions: A2780cisR, 72 h exposure, MTT; read-out: IC50 (median growth inhibitory concentration)
Description: as §7, §5, §8

A2780 cells = assay: MTT cytotoxicity assay, A2780; type: cell-based, human; conditions: A2780, 72 h exposure, MTT; read-out: IC50 (median growth inhibitory concentration)
Description: as §7, §5, §8

| Molecule | reduction of glycolysis processes compared with untreated control cells (2008 cells) | Pt(IV)-phen moiety reduced ([1]; after 1 day) | Pt(IV)-phen moiety reduced ([1]; after 2 days) [%] | Pt(IV)-phen moiety reduced ([1]; after 3 days) [%] | times more potent than compound 3b [2] | reduction of cellular glycolytic activity (PSN-1 cells) | IC50 (MCF-7 cells) [µM] | IC50 (PC3 cells) [µM] | Log P [3] | IC50 (A498 cells) [µM] | IC50 (nine cancer cell lines) | Average tumor weight (mean ± SD, g) ([4]; daily dose 1.5 mg kg^-1 i.p.) [g] | Inhibition of tumor growth (%) ([4]; daily dose 1.5 mg kg^-1 i.p.) | Average tumor weight (mean ± SD, g) ([4]; daily dose 3 mg kg^-1 i.p.) [g] | Inhibition of tumor growth (%) ([4]; daily dose 3 mg kg^-1 i.p.) | IC50 (A549 cells) [µM] | IC50 (A2780cisR cells) [µM] | IC50 (A2780 cells) [µM] |
| --- | --- | --- | --- | --- | --- | --- | --- | --- | --- | --- | --- | --- | --- | --- | --- | --- | --- | --- |
| c,c,t,t,c,c-[(DACH)(56Phen)(PhBu)Pt(μ-OOC—(CH2)2—CONH(CH2)3COO)—Pt(DCA)(NH3)2 (Cl2)](TFA)2 [Compound 3a] | about 25% | about 22% | 39 | 58 | about 12 fold | about 36% |  |  |  |  |  |  |  |  |  |  |  |  |
| [NH2][Pt]([NH2])([Cl])[Cl] [CDDP, Cisplatin, reference compound] |  |  |  |  |  |  | 17.4 ± 0.2 | 2.25 ± 0.82 | −2.25 ± 0.04 | 17.5 ± 1.21 | 9.18 µM and 9.9 µM | 0.150 ± 0.07 | 73.35 | 0.044 ± 0.07 | 92.18 | 8.35 ± 0.87 | 13.8 ± 0.2 | 2.8 ± 0.2 |
